In US20160168140A1, “HETEROCYCLIC COMPOUNDS AS ANTIBIOTIC POTENTIATORS” (priority 2014, published 2016):

What follows are molecules tested on Acinetobacter baumannii (Ab23) (assay: MIC shift assay of antibiotics (broth microdilution)). Details: compound concentration 2 μM; fold shift of colistin MIC; nc = no changeover or no shift.
Format: cell-based
Procedure: Minimum inhibitory concentration (MIC) shift assays were performed to determine if the test compounds could alter the MIC of existing antibacterial drugs (e.g., ciprofloxacin and colistin) for E. coli, Acinetobacter baumannii, Klebsiella pneumoniae, Pseudomonas aeruginosa, and Enterobacter cloacae. The MIC shift assay is based on the standard broth microdilution MIC determination protocol of Wiegand et al, Nat Protoc. 3(2):163-75 (2008), with slight modifications that allow for the screening of up to seven test compounds in a single plate.
On the day before an assay, bacteria were grown overnight in cation-adjusted Mueller Hinton broth (CAMHB; Teknova, Hollister, Calif.) at 37° C. in an orbital shaker and sub-cultured at a 1:200 dilution the following morning. The cells were grown to OD600=0.5 to 0.8 and then diluted to OD600=0.01. From a serial dilution of each antibiotic at (50 μL of 2× concentrated stock solutions) several concentrations were added to the wells of a sterile, transparent round-bottom 96-well plate (Phenix Research Products, Candler, N.C.), and diluted cells (50 μL) were added to the plates for a starting OD600 of 0.005. […] A row of wells lacking test compound but containing the antibiotic was used to determine the MIC of that antibiotic alone. A column of wells lacking both antibiotic and test compound served as a growth control, and an additional column containing only CAMHB was included as a sterile blank control.
The plates were incubated for 18 to 20 h at 37° C. in an orbital shaker, and the cell density (OD600) was determined the following day in a microplate reader (PolarStar Optima, BMG Labtech). The MIC shift was determined by comparing the MIC of the antibiotic alone to the MIC of the antibiotic plus test compound.

Molecule	colistin MIC shift, Ab23 at (compd concentration)
Cc1cccc2c(NCCCN(C)C)nc(-c3cc(-c4ccncc4)cc(C(F)(F)F)c3)nc12 [compound 336]	8-16x

Same assay, conditions: compound concentration 4 μM; fold shift of colistin MIC; nc = no changeover or no shift

Molecule	colistin MIC shift, Ab23 at (compd concentration)
3,3′-(propane-2,2-diyl)bis(5,6-dichloro-1H-indole) [compound 461]	64x
CCN(CC)CCCC(C)Nc1nc(/C=C/c2ccc3ccccc3c2)nc2cc(Cl)ccc12 (racemic) [compound 305]	4x
CCN(CC)CCCC(C)Nc1nc(/C=C/c2ccc(Cl)c(Cl)c2)nc2c(C(F)(F)F)cccc12 (racemic) [compound 312]	16x
CCN(CC)CCCC(C)Nc1nc(/C=C/c2ccc(Cl)c(Cl)c2)nc2c([N+](=O)[O-])cccc12 (racemic) [compound 314]	8x
CCN(CC)CCCC(C)Nc1nc(/C=C/c2ccc(Cl)c(Cl)c2)nc2cc(C(F)(F)F)ccc12 (racemic) [compound 315]	4-8x
CCN(CC)CCCC(C)Nc1nc(/C=C/c2ccc(Cl)c(Cl)c2)nc2c(Br)cccc12 (racemic) [compound 316]	2-8x
CCN(CC)CCCC(C)Nc1nc(/C=C/c2ccc(Cl)c(Cl)c2)nc2ccc(Cl)cc12 (racemic) [compound 317]	2x
CCN(CC)CCCC(C)Nc1nc(/C=C/c2ccc(Cl)c(Cl)c2)nc2ccc(Br)cc12 (racemic) [compound 318]	2x
CCN(CC)CCCC(C)Nc1nc(/C=C/c2ccc(Cl)c(Cl)c2)nc2c(F)cccc12 (racemic) [compound 319]	2x
CCN(CC)CCCC(C)Nc1nc(/C=C/c2ccc(Cl)c(Cl)c2)nc2c(Cl)cccc12 (racemic) [compound 320]	2x
CCN(CC)CCCC(C)Nc1nc(/C=C/c2ccc(Cl)c(Cl)c2)nc2cc(Cl)ccc12 (racemic) [compound 325]	4x
CCN(CC)CCCC(C)Nc1nc(-c2cn(Cc3ccccc3)c3c(Cl)cccc23)nc2c(F)cccc12 (racemic) [compound 564]	4x
CCN(CC)CCCC(C)Nc1nc(-c2cn(Cc3ccccc3)c3c(Cl)cccc23)nc2c(Cl)cccc12 (racemic) [compound 566]	8x
CCN(CC)CCCC(C)Nc1nc(-c2cn(Cc3ccccc3)c3c(Cl)cccc23)nc2c(Br)cccc12 (racemic) [compound 568]	4x
CCN(CC)CCCC(C)Nc1nc(-c2cn(Cc3ccc(C)cc3)c3c(Cl)cccc23)nc2c(C)cccc12 (racemic) [compound 572]	4x
CCN(CC)CCCC(C)Nc1nc(-c2cn(Cc3ccc(Cl)cc3)c3c(Cl)cccc23)nc2c(C)cccc12 (racemic) [compound 576]	8x
CCN(CC)CCCC(C)Nc1nc(-c2cn(Cc3cccc(Cl)c3)c3c(Cl)cccc23)nc2c(C)cccc12 (racemic) [compound 578]	16x
CCNCCCC(C)Nc1nc(-c2cn(Cc3ccccc3)c3c(Cl)cccc23)nc2c(C)cccc12 (racemic) [compound 581]	4x
CCN(CC)CCCC(C)Nc1nc(-c2cn(Cc3ccccc3)c3c(Cl)cccc23)nc2cc(Cl)ccc12 (racemic) [compound 584]	8x
COc1ccc2c(NCCCN(C)C)nc(/C=C/c3ccc(Cl)c(Cl)c3)nc2c1C [335a]	8x
CN(C)CCOC(=O)n1cc(-c2ccc(Cl)c(Cl)c2)c2cc(Cl)ccc21 [362a]	8x
CCC(N)C(=O)n1cc(/C=C/c2ccc(Cl)c(Cl)c2)c2cc(Br)ccc21 (centres unmarked) [362d]	32x

Molecule	colistin MIC shift, Ab23 at (compd concentration)
CN(C)CC(=O)n1cc(/C=C/c2ccc(Cl)c(Cl)c2)c2cc(Br)ccc21 [362e]	32x
CCC(N)C(=O)n1cc(-c2ccc(Cl)c(Cl)c2)c2cc(Cl)ccc21 (centres unmarked) [362f]	64x
CN1CCN(CC(=O)n2cc(-c3ccc(Cl)c(Cl)c3)c3cc(Cl)ccc32)CC1 [362g]	16x
Cc1cccc2c(NCCCN)nc(-c3cccc(-c4cc(C(F)(F)F)ccc4F)c3)nc12 [491a]	128x
Cc1cccc2c(NCCCN)nc(-c3cc(Br)cc(C(F)(F)F)c3)nc12 [524a]	128x
Cc1cccc2c(NCCCN(C)C)nc(-c3cc(-c4ccccn4)cc(C(F)(F)F)c3)nc12 [524b]	16x
Cc1cccc2c(NCCCN(C)C)nc(-c3cc(-c4cncnc4)cc(C(F)(F)F)c3)nc12 [524c]	2x
Cc1c(-c2ccccc2)ccc2c(NCCCN(C)C)nc(-c3cc(Br)cc(C(F)(F)F)c3)nc12 [524d]	16-32x
Cc1c(-c2ccccc2)ccc2c(NCCCN(C)C)nc(-c3cc(-c4ccccc4)cc(C(F)(F)F)c3)nc12 [524e]	4x
Cc1cccc2c(NCCN(C)C)nc(-c3cc(-c4ccccc4)cc(C(F)(F)F)c3)nc12 [524f]	32x
Cc1cc(Br)cc2c(NCCCN(C)C)nc(-c3cc(Br)cc(C(F)(F)F)c3)nc12 [524g]	16x
Cc1cccc2c(NCCCN)nc(-c3cc(-c4ccccc4)cc(C(F)(F)F)c3)nc12 [524i]	128x
Cc1cccc2c(NCCCN)nc(-c3cc(-c4ccccc4Cl)cc(C(F)(F)F)c3)nc12 [524m]	128x
CN(C)CCCNc1nc(/C=C/c2ccc(Cl)c(Cl)c2)nc2c([N+](=O)[O-])cccc12 [compound 302]	16x
CCN(CC)CCCC(C)Nc1nc(/C=C/c2ccc(Cl)c(Cl)c2)nc2c(C)cccc12 (centres unmarked) [compound 313]	8x
CN(C)CCCN(C)c1nc(/C=C/c2ccc(Cl)c(Cl)c2)nc2cc(Cl)c(Cl)cc12 [compound 327]	8-16x
CN(C)CCCNc1nc(/C=C/c2ccc(F)c(Cl)c2)nc2c(C(F)(F)F)cccc12 [compound 329]	8x
CN(C)CCCNc1nc(/C=C/c2ccc(F)c(F)c2)nc2c(C(F)(F)F)cccc12 [compound 330]	2x
CN(C)CCCNc1nc(/C=C/c2cc(C(F)(F)F)c(C(F)(F)F)cc2C(F)(F)F)nc2c(C(F)(F)F)cccc12 [compound 331]	16x
CN(C)CCCNc1nc(/C=C/c2ccc(F)c(C(F)(F)F)c2)nc2c(C(F)(F)F)cccc12 [compound 332]	16x
CN(C)CCCNc1nc(/C=C/c2cc(Cl)ccc2Cl)nc2c(C(F)(F)F)cccc12 [compound 335]	16x

Same assay, conditions: compound concentration 8 μM; fold shift of colistin MIC; nc = no changeover or no shift

Molecule	colistin MIC shift, Ab23 at (compd concentration) [x]
CCN(CC)CCCC(C)Nc1nc(/C=C/c2cccc(Br)c2)nc2cc(Cl)ccc12 (racemic) [compound 306]	4
CCN(CC)CCCC(C)Nc1nc(/C=C/c2ccc(C(F)(F)F)cc2)nc2cc(Cl)ccc12 (racemic) [compound 307]	4
CN(C)CCCn1nc(-c2ccc(Cl)c(Cl)c2)c2ccc(C(F)(F)F)cc21 [559a]	8
CN(C)CC(=O)n1nc(-c2ccc(Cl)c(Cl)c2)c2ccc(C(F)(F)F)cc21 [559b]	8
CN(C)CCn1nc(-c2ccc(Cl)c(Cl)c2)c2ccc(C(F)(F)F)cc21 [559c]	2
CN(C)CCCNc1nc(/C=C/c2ccc(Br)cc2)nc2cc(Cl)ccc12 [compound 301]	8

Same assay, conditions: compound concentration 10 μM; fold shift of colistin MIC; nc = no changeover or no shift

Molecule	colistin MIC shift, Ab23 at (compd concentration) [x]
CCN(CC)CCCC(C)Nc1nc(/C=C/c2ccc(C(=O)OC)cc2)nc2cc(Cl)ccc12 (racemic) [compound 309]	4
CCN(CC)CCCC(C)Nc1nc(/C=C/c2ccc(Cl)cc2)nc2cc(Cl)ccc12 (racemic) [compound 310]	8
CCN(CC)CCCC(C)Nc1nc(/C=C/c2ccc(Cl)c(Cl)c2)nc2cc(F)c(F)cc12 (racemic) [compound 321]	8
CCN(CC)CCCC(C)Nc1nc(-c2cn(Cc3ccccc3)c3c(Cl)cccc23)nc2ccccc12 (racemic) [compound 562]	8
CCN(CC)CCCC(C)Nc1nc(-c2cn(Cc3ccccc3)c3c(Cl)cccc23)nc2c(-c3ccncc3)cccc12 (racemic) [compound 570]	2
CCN(CC)CCCC(C)Nc1nc(-c2cn(Cc3cccc(C)c3)c3c(Cl)cccc23)nc2c(C)cccc12 (racemic) [compound 574]	8
